The source of these data is patent publication US20260151358A1, “METHODS OF TREATING, AMELIORATING, AND/OR PREVENTING STRESS-RELATED DISORDER” (Yale University, priority 2022, published 2026).

One experiment deals with rhesus monkeys. The experiment in a line: Stress-induced (FG7142) working memory deficits, spatial delayed response task, systemic administration. Particulars: for stress-induced working memory (cognitive) deficits: pretreatment, FG7142-treated animals, delayed response task; for effect of the selected dose alone on working memory performance: without stressor; for stress-induced cognitive deficits: monkeys. It counts as in vivo. An excerpt: The final experiments examined whether systemic administration of compounds that block β1-AR or LTCCs prevent stress-induced working memory deficits in rhesus monkeys (n=6), as predicted by the physiological data. This experiment used the LTCC blocker, nimodipine, which normalizes dlPFC working memory in human subjects carrying the CACNA1C allele that increases channel expression. The current experiments tested the effects of β1-AR or LTCC blockade on stress-induced working memory deficits in adult monkeys performing the spatial delayed response task in a Wisconsin General Test Apparatus. The anxiogenic inverse benzodiazepine agonist, FG7142, was used as a pharmacological stressor, as it produces a classic stress response including cortisol release in humans and monkeys, yet allows precise dosing to produce a mild response that impairs accuracy without impeding motivation for testing for food rewards. […]; post-hoc comparisons: vehicle+vehicle vs. vehicle+stress, p=0.001; […]; post-hoc comparisons: vehicle+vehicle vs. vehicle+stress, p=0.0009; vehicle+stress vs. nimodipine+stress, p=0.0006).

The next experiment relates to dlPFC Delay cells. The experiment in a line: Single unit recording with iontophoresis of dlPFC Delay cells in monkeys performing the ODR working memory task. Particulars: for delay-related firing of dlPFC Delay cells for the neurons' preferred direction / d′ measure of spatial tuning / delay-related firing for nonpreferred directions: iontophoresis, vs control, ODR task; for PFC neuronal firing (Delay cell firing): FIGS. 9A-9B, monkeys performing a working memory task; for effect on the S-Bay (LTCC agonist)-induced reduction of Delay cell firing: pretreatment. The class given is in vivo, rhesus macaques. An excerpt: The physiological contributions of LTCC and β1-AR signaling were examined at the cellular level in rhesus macaques performing the oculomotor delayed response (ODR) spatial working memory task (FIG. 4A) to determine how they influence the neuronal firing needed for working memory and higher cognition. Recordings were made from the caudal principal sulcus (FIG. 4B) using an iontophoretic electrode (FIG. 4C) that allows minute ejection of charged compounds onto the neuron being recorded. The dlPFC contains “Delay cells” that are able to fire across the length of the delay period while the subject is remembering a location (FIG. 4D); this persistent firing is spatially tuned for the neuron's preferred direction, thus representing visual space in working memory. The effects of β1-AR-Cav1.2 signaling on dlPFC “Delay cell” firing were tested using single unit recordings coupled with iontophoresis in adult and aged rhesus monkeys performing the ODR task using repeated measures analyses. Aged monkeys have naturally-occurring calcium dysregulation, and thus are particularly useful for examining agents that reduce calcium signaling. As there are no compounds selective for Cav1.2, these experiments used agents targeting all LTCCs (i.e. Cav1.2 and Cav1.3 in dlPFC).

Experiment [1] has as its target β3-adrenergic receptor subtype (β3-AR) (Homo sapiens, UniProt P13945). To be noted: cited from earlier work.
A further experiment deals with dlPFC function. Particulars: published data, Li et al. 1994; cited from earlier work.
In the next experiment the test system is test animals. The experiment in a line: Working memory (cognition) after β1-AR or β2-AR blockade (FIG. 11). It counts as in vivo.

Entries after “also recorded” stand apart in the source; their conditions may differ.

Chain of β3-adrenergic receptor subtype (β3-AR) (P13945 whole entry): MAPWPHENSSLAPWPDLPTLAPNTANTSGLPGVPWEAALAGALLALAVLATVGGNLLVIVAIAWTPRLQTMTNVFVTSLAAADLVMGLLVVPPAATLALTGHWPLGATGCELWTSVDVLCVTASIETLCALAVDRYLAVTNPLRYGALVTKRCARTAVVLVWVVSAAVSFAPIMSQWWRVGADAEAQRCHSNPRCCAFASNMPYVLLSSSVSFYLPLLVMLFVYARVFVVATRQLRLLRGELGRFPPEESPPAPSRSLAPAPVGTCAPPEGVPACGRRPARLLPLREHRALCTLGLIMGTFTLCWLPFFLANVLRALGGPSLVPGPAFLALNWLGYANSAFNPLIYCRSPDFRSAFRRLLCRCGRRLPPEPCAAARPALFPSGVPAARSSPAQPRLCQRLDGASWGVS

As for `COCCOC(=O)C1=C(C)NC(C)=C(C(=O)OC(C)C)C1c1cccc([N+](=O)[O-])c1` (centres unmarked) [nimodipine, 3-(2-methoxyethyl) 5-propan-2-yl 2,6-dimethyl-4-(3-nitrophenyl)-1,4-dihydropyridine-3,5-dicarboxylate], in the experiment on rhesus monkeys, the “stress-induced working memory (cognitive) deficits” value (from here on “stress-induced working memory”) is listed as “prevented working memory deficits” and the “effect of the selected dose alone on working memory performance” value was “no effect on their own”.

Regarding `CC(C)NCC(O)COc1ccc(CCOCC2CC2)cc1` (centres unmarked) [betaxolol, 1-{4-[2-(cyclopropylmethoxy)ethyl]phenoxy}-3-(propan-2-ylamino)propan-2-ol], in the experiment on dlPFC Delay cells, the “delay-related firing of dlPFC Delay cells for the neurons' preferred direction” value is reported as “enhanced delay-related firing” and the “d′ measure of spatial tuning” value was “increased”. In addition, in the experiment on rhesus monkeys, the “stress-induced working memory” value is “prevented working memory deficits; also recorded: blocked stress-induced cognitive deficits” and the “effect of the selected dose alone on working memory performance” value is reported as “no effect on their own”. Further, in experiment [1], the “pKD value for β3-AR” value is reported as 5.97±0.08.

As to `CC[C@H](NC(C)C)[C@H](O)c1ccc(O)c2[nH]c(=O)ccc12` (relative stereo) [procaterol, (±)-(1R,2S)-rel-8-hydroxy-5-[1-hydroxy-2-(isopropylamino)butyl]-quinolin-2 (1H)-one], the “PFC neuronal firing (Delay cell firing)” value in the experiment on dlPFC Delay cells is “increases delay cell firing”.

For `CC(C)NCC(O)COc1cccc2ccccc12` (racemic) [propranolol, (RS)-1-(1-methylethylamino)-3-(1-naphthyloxy)propan-2-ol], the “effect on dlPFC function” value in the experiment on dlPFC function is “little effect”.

Regarding `c1ccc2c(c1)CCC[C@H]2Nc1nc2ccccc2[nH]1` [NS8593, N-[(1R)-1,2,3,4-tetrahydro-1-naphthalenyl]-1H-benzimidazol-2-amine], in the experiment with dlPFC Delay cells, the “delay-related firing for nonpreferred directions” value is given as “smaller increase”, the “delay-related firing of dlPFC Delay cells for the neurons' preferred direction” value is on record as “significantly increased delay firing”, the “d′ measure of spatial tuning” value is recorded as “significant increase” and the “effect on the S-Bay (LTCC agonist)-induced reduction of Delay cell firing” value is reported as “blocked”.

Turning to `COC(=O)C1=C(C)NC(C)=C([N+](=O)[O-])[C@H]1c1ccccc1C(F)(F)F` [(S)-(−)-Bay-K 8644, (−)-methyl 2,6-dimethyl-5-nitro-4 (S)-[2-(trifluoromethyl)phenyl]-1,4-dihydropyridine-3-carboxylate], in the experiment with dlPFC Delay cells, the “delay-related firing of dlPFC Delay cells for the neurons' preferred direction” value is on record as “reduced delay-related firing” and the “d′ measure of spatial tuning” value is listed as “decreased”.

For `Cc1ccc(OCC(O)C(C)NC(C)C)c2c1CCC2` (centres unmarked) [IC1118551, 3-(isopropylamino)-1-[(7-methyl-4-indanyl)oxy]butan-2-ol], in the experiment on test animals (0.1 mg/kg, FIG. 11, n=1), the “cognition (working memory)” value is recorded as “impaired cognition”.

In the case of `O=C(NCCNCC(O)COc1ccc(O)cc1)N1CCOCC1` (racemic) [xamoterol, (RS)—N-(2-{[2-hydroxy-3-(4-hydroxyphenoxy)propyl]amino}ethyl)morpholine-4-carboxamide], in the experiment on dlPFC Delay cells, the “PFC neuronal firing (Delay cell firing)” value is listed as “reduces PFC neuronal firing”, the “delay-related firing for nonpreferred directions” value was “not for nonpreferred directions”, the “delay-related firing of dlPFC Delay cells for the neurons' preferred direction” value was “reduced delay-related firing” and the “d′ measure of spatial tuning” value was “significant reduction”.

With `CNC(=O)c1cc2c(cn1)[nH]c1ccccc12` [FG7142], the “working memory performance compared to vehicle+vehicle control” value in the experiment with rhesus monkeys (vehicle pretreatment + pharmacological stressor, n=6) is recorded as “significantly impaired performance”.

For `CCN(c1ccccc1)c1cc(NC)[n+](C)c(C)n1` [ZD7288, N-ethyl-1,6-dihydro-1,2-dimethyl-6-(methylimino)-N-phenyl-4-pyrimidinamine], the “effect on the S-Bay (LTCC agonist)-induced reduction of Delay cell firing” value in the experiment on dlPFC Delay cells was “blocked”.

For the molecule `OC(CNCC(O)C1CCc2cc(F)ccc2O1)C1CCc2cc(F)ccc2O1` (centres unmarked) [nebivolol, 1-(6-fluoro-3,4-dihydro-2H-chromen-2-yl)-2-[[2-(6-fluoro-3,4-dihydro-2H-chromen-2-yl)-2-hydroxyethyl]amino]ethanol], the stress-induced cognitive deficits result in the experiment on rhesus monkeys (0.01 mg/kg, FIG. 10B) is “blocked stress-induced cognitive deficits”; in the experiment with rhesus monkeys (0.1 mg/kg, FIG. 10A), “blocked stress-induced cognitive deficits”. Further, the “stress-induced working memory” value in the experiment on rhesus monkeys is reported as “prevented stress-induced cognitive deficits”. Also, the “cognition (working memory)” value in the experiment on test animals (1.0 mg/kg, FIG. 11) was “improved cognition”.
